1 molecule from patent publication US20230364109A1, “GANAXOLONE FOR USE IN TREATMENT OF SUPER REFRACTORY STATUS EPILEPTICUS” (MARINUS PHARMACEUTICALS, INC., priority 2020, published 2023) can be followed below.

Series [1] is described as follows: solubility of ganaxolone. It is filed as physicochemical. The method, then: Ganaxolone is insoluble in water. […] Ganaxolone has a relatively long half-life - approximately 20 hours in human plasma following oral administration (Nohria, V. and Giller, E., Neurotherapeutics, (2007) 4(1): 102-105). Furthermore, ganaxolone has a short Tmax, which means that therapeutic blood levels are reached quickly.
Ganaxolone formulations suitable for parenteral administration in the methods of the present invention may comprise physiologically acceptable sterile aqueous or non-aqueous solutions, dispersions, suspensions or emulsions, and sterile powders for reconstitution into sterile injectable solutions or dispersions. Examples of suitable aqueous and non-aqueous carriers, diluents, solvents, or vehicles including water, ethanol, polyols (propylene glycol, polyethylene-glycol, glycerol, cremophor and the like), suitable mixtures thereof, vegetable oils (such as olive oil) and injectable organic esters such as ethyl oleate. Additionally, ganaxolone can be dissolved at concentrations of >1 mg/ml using water soluble beta cyclodextrins (e.g. beta-sulfobutyl-cyclodextrin and 2-hydroxypropylbetacyclodextrin). A particularly suitable cyclodextrin is a substituted-β-cyclodextrin is Captisol®. […]

The nature of series [2]: toxicology studies in animals focusing on prenatal and neonatal development. It is filed as in vivo. The text has this: Ganaxolone has been administered to infants with severe forms of epilepsy as early as 4 months of age. In clinical trials involving administration of ganaxolone over several weeks, the study drug has been tapered off over a 1 to 2-week period.
In series [3] the test system is status epilepticus. Nature of the series: Case Report 1: IV to enteric GNX in a person with SE. The class given is in vivo, human. The text has this:
FIGS. 3A-3C show video EEGs in the patient described in Example 2 on day 1 (FIG. 3A), day 2 (FIG. 3B), and day 5 (FIG. 3C). […] Double banana bipolar montage: LFF 1 Hz, HFF 70 Hz; sensitivity, 15 µV/mm; time base, 30 mm/s. EEG, electroencephalogram; HFF, high-frequency filter; LFF, low-frequency filter.
A person with a history of sporadic primarily febrile and rare afebrile convulsive seizures in early childhood had been seizure-free for 10 years off medication until they began to have focal seizures with generalization. Seizure semiology was characterized by eye fluttering with rapid bilateral involvement at times with leftward head/eye deviation as clusters prior to generalization. They had recurrent seizures over the first three weeks and was admitted to an outside hospital for SE requiring intubation. […] They were transferred to the inpatient pediatric rehabilitation unit after being seizure-free for one month on 5 antiseizure medications (cannabidiol, perampanel, phenobarbital, lacosamide, lorazepam), pyridoxine, ketogenic diet, anakinra, and menstrual suppression.
A thorough infectious, metabolic, genetic, vascular and autoimmune evaluation was non-diagnostic. While in the inpatient rehabilitation unit they developed a fever of 41.7° C. and respiratory viral panel was positive for parainfluenza. SE returned requiring transfer to the ICU for midazolam and pentobarbital infusions. […] They were seizure-free for two days after drips were weaned before seizures returned prompting vagus nerve stimulator placement and a prolonged 2-week course of IV pentobarbital titrated to EEG burst suppression. As pentobarbital was weaned off, convulsive seizures returned.
They were granted E-IND approval for a trial of IV to enteric GNX. GNX was administered using an IV bolus followed by infusion over 4 days (with boluses as needed for breakthrough seizures): on day 1 pentobarbital was discontinued; by day 3 clinical and electrographic seizures stopped.
One month after ganaxolone initiation, the patient was transferred to inpatient rehabilitation services and they were discharged home 1 month later. They were weaned off the ketogenic diet, anakinra, and felbamate with minimal breakthrough clinical seizures (only in setting of intercurrent illness or decreasing ASMs). […] Patient continues to be on ganaxolone and 4 other ASMs (valproic acid, brivaracetam, lorazepam, perampanel). See, FIGS. 1, 2, and 3A-3C.

As for `CC(=O)[C@H]1CC[C@H]2[C@@H]3CC[C@H]4C[C@](C)(O)CC[C@]4(C)[C@H]3CC[C@]12C` [ganaxolone, 3α-hydroxy-3β-methyl-5α-pregnan-20-one], the solubility in series [1] (aqueous with cosolvent or surfactant or cyclodextrin, beta-sulfobutyl-cyclodextrin, 2-hydroxypropylbetacyclodextrin, read-out: concentration dissolved using water soluble beta cyclodextrins) was over 1 mg/mL. In addition, in series [1] (water), the solubility in water result is given as “insoluble”. Also, the “prenatal and neonatal developmental toxicity” value in series [2] is on record as “have not demonstrated toxicities”. In series [3] (IV bolus followed by infusion over 4 days), the “day by which clinical and electrographic seizures stopped” value was at most 3 days. Also, the “video EEG finding (FIG. 3C)” value in series [3] (day 5 of protocol, transition from IV to enteric GNX) is “cessation of seizures”. Also, the “seizure status after transition from IV to enteric GNX” value in series [3] (from Day 5) is “has remained seizure-free”. The durability of response result in series [3] (more than one year later) is “response to ganaxolone and seizure cessation were sustained”.
